In paper PMC9820377, “Molecular Characterization and Expression Patterns of Two Pheromone-Binding Proteins from the Diurnal Moth Phauda flammans (Walker) (Lepidoptera: Zygaenoidea: Phaudidae)” (International Journal of Molecular Sciences, 2022) one finds Ki and IC50 data, which are given here for two molecules.

The target in one assay is PflaPBP1 (Phauda flammans, UniProt A0A6M6RBM3). As to the kind of experiment: Fluorescence competitive binding assay with 1-NPN probe, PflaPBP1. Particulars: recombinant protein 2 µM, 1-NPN 2 µM, 50 mM Tris-HCl buffer; for Ki: calculated from IC50 and K1-NPN, pH 7.4; for IC50: pH 7.4, room temperature. On the procedure: (§1) An RF-5301PC fluorescence spectrophotometer (Shimadzu, Kyoto, Japan) was used in this experiment for fluorescence competitive binding analysis with a 1-cm quartz colorimetric cup at room temperature. N-Phenyl-1-naphthylamine (1-NPN) was used as the probe and applied for the suitability test. The 1-NPN was excited at 337 nm, in which the emission spectra were recorded between 350 and 660 nm. The purified PflaPBP1 and PflaPBP2 were diluted to a final concentration of 2 µM of the protein solution in Tris-HCl buffer and titrated with aliquots of 1 mM 1-NPN dissolved in methanol, which were 0, 2, 4, 8, 12, 16, 20 µM. The maximum fluorescence value (manipulate peak pick) of each excitation was recorded. The binding data were obtained from three independent measurements. The dissociation constants of PflaPBP1/PflaPBP2 for 1-NPN were calculated from Scatchard plots of the binding data by using Prism 5 software (GraphPad, La Jolla, CA, USA) with nonlinear regression for the one site-specific binding method.
Chain of PflaPBP1 (A0A6M6RBM3 entry or part of it): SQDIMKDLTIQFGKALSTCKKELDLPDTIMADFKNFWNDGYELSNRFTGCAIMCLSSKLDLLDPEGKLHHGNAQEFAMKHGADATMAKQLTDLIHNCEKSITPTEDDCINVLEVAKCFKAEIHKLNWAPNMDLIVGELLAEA
(§2) The two sex pheromones Z-9-hexadecenal (Z9H, 96.3% chemical purity) and (Z, Z, Z)-9,12,15-octadecatrienal (Z9O, 93% chemical purity) were obtained from Shanghai T & W Pharmaceutical Co., Ltd. (Shanghai, China) and Pherobank BV (Wijk bij Duurstede, The Netherlands). The competitive binding of these two sex pheromone components was measured using 1-NPN (2 µM) as the fluorescent probe with a stoichiometry of 1:1 (protein: ligand). PflaPBP1 or PflaPBP2 was titrated to a final concentration of 2 μmol/L with 50 mM Tris-HCl buffer. The sex pheromone dissolved in methanol was gradually added to the mixed solution of protein and 1-NPN with the final concentration of each ligand added to the sample ranging from 0 μM to 20 μM. All sets of fluorescence spectrophotometers were the same as above. The binding data were obtained from three independent measurements. […] The following formula was adopted to calculate the binding affinities (Ki): Ki=[IC50]/1+[1−NPN/K1−NPN] ) where [1-NPN] is the free concentration of 1-NPN, [IC50] is the ligand concentration replacing 50% of the fluorescence reporter, and K1-NPN is the dissociation constant of the PflaPBP/1-NPN complex. The data were fitted with nonlinear regression model using Prism software (version 5.0).

In a further assay the target is PflaPBP2 (Phauda flammans, UniProt A0A6M6R985). The assay can be described thus: Fluorescence competitive binding assay with 1-NPN probe, PflaPBP2. The conditions noted are these: recombinant protein 2 µM, 1-NPN 2 µM, 50 mM Tris-HCl buffer; for Ki: calculated from IC50 and K1-NPN, pH 7.4; for IC50: pH 7.4, room temperature. Here is the method:
as §1
as §2, with “The sex pheromone dissolved in methanol was gradually added to the mixed solution of protein and 1-NPN with the final concentration of each ligand added to the sample ranging from 0 μM to 20 μM.” left out

Chain of PflaPBP2 (A0A6M6R985 entry or part of it): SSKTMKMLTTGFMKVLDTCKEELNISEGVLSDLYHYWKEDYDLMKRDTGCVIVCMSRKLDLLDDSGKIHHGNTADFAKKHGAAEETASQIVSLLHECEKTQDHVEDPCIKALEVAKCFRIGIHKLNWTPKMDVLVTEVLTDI

`CCCCCC/C=C\CCCCCCCC=O` [Z-9-hexadecenal]: on PflaPBP1, the Ki was 21.3 µM and the 50% inhibitory concentration (IC50) is 29.1 µM. Besides, on PflaPBP2, the inhibition constant Ki was 109 µM and the IC50 came to 149 µM.
Consider `CC/C=C\C/C=C\C/C=C\CCCCCCCC=O` [(Z, Z, Z)-9, 12, 15-octadecatrienal], for which the inhibition constant Ki is 38.5 µM at PflaPBP1 and 24.8 µM on PflaPBP2. Besides, the values for the IC50 at PflaPBP1 and on PflaPBP2 were 52.7 µM and 34 µM, respectively.

The term Ki denotes the equilibrium dissociation constant of an inhibitor or competing ligand from its target. By IC50 is commonly meant the concentration at which inhibition is half-maximal.
